Results taken from BindingDB's records for patent US20240352000 (Korea Research Institute of Chemical Technology, 2024).
pIC50: −log10 of the molar value.

Assays:
[1] = molecular target: T1, Epidermal growth factor receptor [DEL746-750,T790M,C797S] (Homo sapiens, UniProt P00533, C797S/DEL746-750/T790M); experiment: Measurement of Inhibitory Ability of the Compounds Represented by Formula 1 According to the Present Invention Against Wild Type EGFR and EGFR Mutants
T1 construct: gene EGFR
Method: (§1) An experiment to measure the activity of the compounds of the present invention against EGFR mutant enzymes was performed as follows using the HTRF system sold by Cisbio. For the EGFR del19/T790M mutant enzyme, a recombinant protein provided by Carna Biosciences was purchased and used, and for the EGFR del19/T790M/C797S mutant enzyme, a protein provided by SignalChem was purchased and used as an enzyme source.The composition of the assay buffer used for measuring the activity was 50 mM Tris-HCl pH 7.5, 100 mM NaCl, 7.5 mM MgCl2, 3 mM KCl, 0.01% Tween 20, 0.1% BSA, and 1 mM DTT. Here, an enzyme reaction was performed using […] and a peptide substrate labeled with biotin at a concentration of 0.5 mM. Analysis of the inhibitory effect of the compounds against the EGFR activity was conducted according to the following analysis reaction recipe.Component 1: 4 μL of an EGFR mutant enzymeComponent 2: 2 μL of a compound solutionComponent 3: 4 μL of ATP and a peptide labeled with biotinThe enzyme reaction was started by first mixing Component 1 and Component 2 and then adding Component 3. After reaction at 37° C. for 2 hours, […] consisting of streptavidin-XL665 and europium-labeled anti-phosphotyrosine antibody provided by Cisbio was added to the enzyme reaction solution and reacted at room temperature for 1 hour. Finally, the ratio of fluorescence values at 615 nm and 665 nm was obtained using the Envision equipment from Perkin-Elmer to quantitatively measure the enzyme activity and confirmed the inhibitory ability of the compounds.

[2] = molecular target: T2, Epidermal growth factor receptor [DEL746-750,T790M] (Homo sapiens, UniProt P00533, DEL746-750/T790M); experiment: as above
T2 construct: gene EGFR
Method: as §1

T2 sequence (P00533 with tags, fused parts or gaps DEL746-750/T790M limits assumed): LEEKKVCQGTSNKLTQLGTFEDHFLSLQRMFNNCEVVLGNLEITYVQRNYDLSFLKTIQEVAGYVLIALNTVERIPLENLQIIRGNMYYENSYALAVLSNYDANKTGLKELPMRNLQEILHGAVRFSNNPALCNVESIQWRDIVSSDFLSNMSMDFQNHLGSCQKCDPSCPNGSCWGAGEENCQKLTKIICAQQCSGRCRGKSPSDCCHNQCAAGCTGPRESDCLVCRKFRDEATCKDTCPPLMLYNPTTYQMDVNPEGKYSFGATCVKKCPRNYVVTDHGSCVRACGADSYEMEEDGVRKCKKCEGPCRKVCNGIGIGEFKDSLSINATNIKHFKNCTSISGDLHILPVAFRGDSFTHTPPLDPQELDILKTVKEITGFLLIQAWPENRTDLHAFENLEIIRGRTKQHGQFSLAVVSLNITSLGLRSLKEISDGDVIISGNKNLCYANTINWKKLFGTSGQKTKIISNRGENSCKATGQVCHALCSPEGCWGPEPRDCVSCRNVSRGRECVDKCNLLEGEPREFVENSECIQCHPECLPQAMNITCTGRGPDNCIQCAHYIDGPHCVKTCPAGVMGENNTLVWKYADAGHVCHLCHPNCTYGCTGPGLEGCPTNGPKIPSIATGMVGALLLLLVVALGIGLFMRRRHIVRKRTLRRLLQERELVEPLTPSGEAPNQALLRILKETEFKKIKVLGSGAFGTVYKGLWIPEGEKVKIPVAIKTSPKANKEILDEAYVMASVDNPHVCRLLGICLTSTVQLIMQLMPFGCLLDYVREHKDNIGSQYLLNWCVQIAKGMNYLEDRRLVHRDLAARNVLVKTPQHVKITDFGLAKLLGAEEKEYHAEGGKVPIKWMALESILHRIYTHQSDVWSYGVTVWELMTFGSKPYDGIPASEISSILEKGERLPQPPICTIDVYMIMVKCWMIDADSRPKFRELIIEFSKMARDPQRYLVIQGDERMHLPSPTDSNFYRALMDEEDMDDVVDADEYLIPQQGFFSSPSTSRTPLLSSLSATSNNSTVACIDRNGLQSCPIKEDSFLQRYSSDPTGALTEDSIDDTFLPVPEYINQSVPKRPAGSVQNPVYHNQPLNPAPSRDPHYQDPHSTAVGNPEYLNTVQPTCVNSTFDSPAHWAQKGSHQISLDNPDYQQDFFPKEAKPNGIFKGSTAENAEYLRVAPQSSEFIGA
T1 sequence (P00533 with tags, fused parts or gaps C797S/DEL746-750/T790M limits assumed): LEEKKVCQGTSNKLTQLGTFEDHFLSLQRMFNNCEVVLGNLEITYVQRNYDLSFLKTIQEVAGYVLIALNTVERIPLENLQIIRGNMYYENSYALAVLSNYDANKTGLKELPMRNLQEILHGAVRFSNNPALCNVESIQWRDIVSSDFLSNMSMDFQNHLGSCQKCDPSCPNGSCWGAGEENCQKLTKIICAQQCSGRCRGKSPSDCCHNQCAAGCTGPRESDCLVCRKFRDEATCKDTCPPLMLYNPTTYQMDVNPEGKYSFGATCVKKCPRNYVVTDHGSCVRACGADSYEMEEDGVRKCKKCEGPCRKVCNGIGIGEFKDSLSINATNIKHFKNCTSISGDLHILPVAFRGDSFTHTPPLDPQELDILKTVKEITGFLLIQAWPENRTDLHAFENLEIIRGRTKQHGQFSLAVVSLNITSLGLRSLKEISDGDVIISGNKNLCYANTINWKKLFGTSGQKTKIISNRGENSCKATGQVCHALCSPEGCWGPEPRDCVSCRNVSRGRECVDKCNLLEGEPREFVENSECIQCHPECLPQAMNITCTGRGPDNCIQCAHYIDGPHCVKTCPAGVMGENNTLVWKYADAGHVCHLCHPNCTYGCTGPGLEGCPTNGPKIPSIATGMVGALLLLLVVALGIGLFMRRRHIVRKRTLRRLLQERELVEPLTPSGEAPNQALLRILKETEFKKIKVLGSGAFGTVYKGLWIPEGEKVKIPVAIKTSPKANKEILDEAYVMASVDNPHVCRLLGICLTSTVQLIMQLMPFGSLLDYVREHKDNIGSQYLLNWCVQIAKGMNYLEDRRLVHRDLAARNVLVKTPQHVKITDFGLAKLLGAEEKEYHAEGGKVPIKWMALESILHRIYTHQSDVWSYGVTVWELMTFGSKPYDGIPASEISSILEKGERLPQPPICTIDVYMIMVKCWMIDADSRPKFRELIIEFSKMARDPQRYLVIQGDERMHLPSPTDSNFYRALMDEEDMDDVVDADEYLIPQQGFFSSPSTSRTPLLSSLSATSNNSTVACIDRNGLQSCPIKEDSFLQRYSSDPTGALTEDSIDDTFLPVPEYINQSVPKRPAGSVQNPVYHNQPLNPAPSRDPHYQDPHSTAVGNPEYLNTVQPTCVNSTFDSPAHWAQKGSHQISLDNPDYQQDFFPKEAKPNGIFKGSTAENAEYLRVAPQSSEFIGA

Structure (SMILES)	pIC50 [1]	pIC50 [2]
CCC(=O)N1CCc2cccc(Nc3nc(Nc4ccc(N5CCC(N6CCN(C)CC6)CC5)cc4OC)ncc3Cl)c21 [US20240352000, Example 14]	7.30	7.04
COc1cc(N2CCC(N3CCN(C)CC3)CC2)ccc1Nc1ncc(Cl)c(Nc2cccc3c2N(C(C)=O)CC3)n1 [US20240352000, Example 12]	> 9.00	
COc1cc(N(C)CCN(C)C)ccc1Nc1ncc(Cl)c(Nc2cccc3c2N(S(C)(=O)=O)CC3)n1 [US20240352000, Example 3]	> 9.00	

Results, then the molecule that gave them:

pIC50 [1]	pIC50 [2]	Structure (SMILES)
7.25	7.14	COc1cc(N2CCC(N3CCN(C)CC3)CC2)ccc1Nc1ncc(Cl)c(Nc2cccc3c2N(C(C)=O)CCC3)n1 [US20240352000, Example 15]
> 9.00		COc1cc(N2CCC(N3CCNCC3)CC2)ccc1Nc1ncc(Cl)c(Nc2cccc3c2N(S(C)(=O)=O)CC3)n1 [US20240352000, Example 17]
	> 9.00	CCS(=O)(=O)N1CCc2cccc(Nc3nc(Nc4ccc(N5CCC(N6CCN(C)CC6)CC5)cc4OC)ncc3Cl)c21 [US20240352000, Example 13]
